Consider eight compounds from patent US20220280661A1, “GLUCOCORTICOID RECEPTOR RADIOLIGANDS AND METHODS FOR THEIR PREPARATION AND USE” (The Regents of the University of California, priority 2019, published 2022).

The structures appear in SMILES notation. Where two headings read alike, the source gives them in different places. A value given as a limit tells only on which side of the number the result lay.

The target of data set [1] is T1, GR (Mus musculus, UniProt P06537).
T1 construct: from tissue; host or cells: tissues of C57BL6/J mice (intact or adrenalectomized), in vivo
T1 sequence (P06537 1-792): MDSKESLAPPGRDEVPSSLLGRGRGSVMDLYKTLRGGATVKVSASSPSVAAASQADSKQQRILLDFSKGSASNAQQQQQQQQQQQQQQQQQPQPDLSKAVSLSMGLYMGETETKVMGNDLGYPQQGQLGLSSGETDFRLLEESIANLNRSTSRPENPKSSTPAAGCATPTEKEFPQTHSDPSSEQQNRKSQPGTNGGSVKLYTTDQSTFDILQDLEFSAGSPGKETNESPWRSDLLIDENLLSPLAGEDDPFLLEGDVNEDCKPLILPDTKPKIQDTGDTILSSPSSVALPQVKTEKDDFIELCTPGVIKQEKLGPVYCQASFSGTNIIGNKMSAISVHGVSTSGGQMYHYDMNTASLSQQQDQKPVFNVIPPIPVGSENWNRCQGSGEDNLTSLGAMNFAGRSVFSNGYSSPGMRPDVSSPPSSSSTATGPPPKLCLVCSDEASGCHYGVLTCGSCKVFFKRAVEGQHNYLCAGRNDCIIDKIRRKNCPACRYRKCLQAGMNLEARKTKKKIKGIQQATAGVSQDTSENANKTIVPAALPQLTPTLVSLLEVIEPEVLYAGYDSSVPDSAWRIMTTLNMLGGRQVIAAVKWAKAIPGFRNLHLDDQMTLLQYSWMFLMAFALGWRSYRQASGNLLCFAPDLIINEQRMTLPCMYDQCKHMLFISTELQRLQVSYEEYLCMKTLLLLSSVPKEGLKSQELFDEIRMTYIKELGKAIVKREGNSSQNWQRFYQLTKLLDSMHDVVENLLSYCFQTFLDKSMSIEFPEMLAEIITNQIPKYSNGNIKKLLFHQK
The data set is described as follows: 11C radiotracer biodistribution with dexamethasone or Dex-CD blocking. It is filed as in vivo. The conditions noted are these: for radiotracer uptake, Adrenal / radiotracer uptake, Blood / radiotracer uptake, Bone / radiotracer uptake, Brain / radiotracer uptake, Brown Fat / radiotracer uptake, Heart / radiotracer uptake, Kidney / radiotracer uptake, Lg. Int. / radiotracer uptake, Liver / radiotracer uptake, Lung / radiotracer uptake, Muscle / radiotracer uptake, Pancreas / radiotracer uptake, Sm. Int. / radiotracer uptake, Spleen / radiotracer uptake, Stomach: 20 min after injection. As for the experimental part: Animal Studies. All animal experiments were performed under the approval of the Institutional Animal Care and Use Committee (IACUC) at UCSF. C57BL6/J mice (4-6 weeks) were purchased from Charles River. All the mice were housed in a dedicated vivarium with free access to food and water. […] Adrenalectomized mice were purchased from Charles River and provided drinking water supplemented with NaCl (aq) per instructions until the time of the tracer biodistribution study.
Biodistribution Studies. Mice were euthanized after radiotracer (7.4-18.5 MBq in 100-150 μL) injection with CO2 (g) asphyxiation and dissected at dedicated time points post injection. The blood and tissues were collected, washed, dried, and weighed. The activity of each tissue was measured with a gamma counter. All data was decay corrected. PRISM software was used to express a percentage (% ID/g) of the injected dose per gram of tissue.
The P value indicates the result of an unpaired, two-tailed Student's t test between the respective treatment group and vehicle (n=5/group).
Table 10 summarizes biodistribution data collected 20 minutes after injection of ^11C-YJH02 among two treatment arms receiving vehicle or one intraperitoneal injection of the water-soluble dexamethasone-cyclodextrin complex at 10 mg/kg one hour prior to radiotracer administration. The P value indicates the result of an unpaired, two-tailed Student's t test between the respective treatment group and vehicle (n=5/group).

The target in data set [2] is T2, GR (Homo sapiens, UniProt P04150).
T2 construct: evaluated using ^3H-ligand displacement assays on cells; endogenous in cells; host or cells: DU145
T2 sequence (P04150 1-777): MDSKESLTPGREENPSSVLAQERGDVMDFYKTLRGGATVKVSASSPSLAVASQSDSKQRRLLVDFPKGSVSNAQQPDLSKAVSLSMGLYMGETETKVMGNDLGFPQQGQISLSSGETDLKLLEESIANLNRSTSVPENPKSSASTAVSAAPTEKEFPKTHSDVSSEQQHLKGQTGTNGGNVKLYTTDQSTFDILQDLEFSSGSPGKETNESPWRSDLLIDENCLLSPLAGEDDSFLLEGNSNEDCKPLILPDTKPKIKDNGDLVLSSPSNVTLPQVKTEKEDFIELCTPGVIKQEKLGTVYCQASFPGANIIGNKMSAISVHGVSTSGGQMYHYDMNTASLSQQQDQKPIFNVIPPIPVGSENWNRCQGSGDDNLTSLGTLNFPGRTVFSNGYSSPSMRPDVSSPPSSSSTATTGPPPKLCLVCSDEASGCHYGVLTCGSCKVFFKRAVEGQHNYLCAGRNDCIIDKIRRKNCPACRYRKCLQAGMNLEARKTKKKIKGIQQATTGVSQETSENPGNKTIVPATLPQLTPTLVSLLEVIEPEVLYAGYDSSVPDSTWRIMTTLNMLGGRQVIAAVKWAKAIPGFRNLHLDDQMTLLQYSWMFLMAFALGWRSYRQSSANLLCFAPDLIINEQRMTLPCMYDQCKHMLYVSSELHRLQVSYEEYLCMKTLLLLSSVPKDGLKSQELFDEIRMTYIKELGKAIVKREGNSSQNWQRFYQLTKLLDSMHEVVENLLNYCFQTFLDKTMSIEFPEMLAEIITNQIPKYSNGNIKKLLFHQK
The data set is described as follows: 3H-dexamethasone displacement assay on cells (Ki). It is filed as binding. As to the method: Statistics. All statistical analysis was performed using PRISM v8.0 software. An unpaired, two-tailed Student's t test was used to determine statistically significant differences in the data. P<0.05 was reported as statistically significant. For the determination of Ki, the data were fit with a one site nonlinear regression model.
The racemic mixture of the phenol 27 was resolved using a chiral Lux® 5p Cellulose-1 stationary phase with an isocratic mobile phase of 30% water, 70% acetonitrile, and 0.1% trifluoroacetic acid (v v) (FIG. 8A). Several milligrams of one peak were isolated and the compound was recrystallized in hexanes.
The Ki were calculated using a one site Ki fit nonlinear regression with Prism v8.0. The data are representative of two independent assays.

The test system of data set [3] is plasma protein. The data set is described as follows: Plasma protein binding, rapid equilibrium dialysis, human plasma. In kind it is in vitro ADME. As to the method: (§1) Plasma Protein Binding Studies. The rapid equilibrium dialysis (RED) device inserts along with a Teflon base plate (Pierce, Rockford, Ill.) were used for the binding studies. The pH of the human or mouse plasma was adjusted to 7.4 prior to the experiment. DMSO stocks (1 mM) were spiked into the plasma to make a final concentration of 2 μM. The spiked plasma solutions (300 μL) were placed into the sample chamber (indicated by the red ring); and 500 μL of PBS buffer, pH 7.4, was placed into the adjacent chamber. The plate was incubated at 37° C. on an orbital shaker (250 rpm) for 4 hours.
(§2) After 4 hours, from the RED plate, aliquots (100 μL) were removed from each side of the insert (plasma and buffer) and dispensed into the 96-well plate. Subsequently, 100 μL of blank plasma was added to the buffer samples and 100 μL of blank buffer was added to all the collected plasma samples. 300 μL of quench solution (50% acetonitrile, 50% methanol, and 0.05% formic acid, warmed up at 37° C.) containing internal standards was added to each well. Plates were sealed, vortexed, and centrifuged at 4° C. for 15 minutes at 4000 rpm. The supernatant was transferred to fresh plates for LC/MS/MS analysis. The sample were analyzed on LC/MS/MS using an AB Sciex API 4000 instrument, coupled to a Shimadzu LC-20AD LC Pump system. Analytical samples were separated using a Waters Atlantis T3 dC18 reverse phase HPLC column (20 mm×2.1 mm) at a flow rate of 0.5 mL/min. The mobile phase consisted of 0.1% formic acid in water (solvent A) and 0.1% formic acid in acetonitrile (solvent B).
(§3) The percentage of test compound bound to protein was calculated by the following equations:
(§4) % Free=(Concentration in buffer chamber/Concentration in plasma chamber)×100%
A general note: Equilibrium dialysis compares concentrations on both sides of a semipermeable membrane.

Assay in data set [4]: as above
In kind it is in vitro ADME. Particulars: human, plasma, pH 7.4, human plasma. As to the method:
as §1, §2, §3, §4

Data set [5] concerns plasma protein. The data set can be described thus: Plasma protein binding, rapid equilibrium dialysis, mouse plasma. It is filed as in vitro ADME. As for the experimental part: as §1, §2, §3, §4
Assay in data set [6]: as above
It is filed as in vitro ADME. Particulars: mouse, plasma, pH 7.4, mouse plasma. As to the method:
as §1, §2, §3, §4

The mark [7] stands for this setting: mice given Dex-CD 10 mg/kg intraperitoneal one hour prior to radiotracer.
The mark [8] stands for this setting: DU145 cells, read-out: affinity (3H-dexamethasone displacement curves).
Where [9] appears, read: GR in cells, one site Ki fit, read-out: Ki.
[10] abbreviates: duplicate, read-out: % Bound (converted).
[11] abbreviates: read-out: % Bound Average (converted).

For the compound `COc1cccc2oc(=O)c3c4c(ccc3c12)NC(C)(C)C=C4C` [^11C-YJH02], at GR [1] (setting [7]), the “radiotracer uptake, Adrenal” value is 2.37 ± 1.0 % ID/g; the “radiotracer uptake, Blood” value came out at 1.07 ± 0.1 % ID/g; the “radiotracer uptake, Bone” value came to 0.76 ± 0.1 % ID/g; the “radiotracer uptake, Brain” value is 0.34 ± 0.07 % ID/g. Further, on GR [1] (setting [7]), the “radiotracer uptake, Brown Fat” value is recorded as 3.64 ± 1.0 % ID/g; the “radiotracer uptake, Heart” value came out at 0.97 ± 0.1 % ID/g; the “radiotracer uptake, Kidney” value was 1.28 ± 0.1 % ID/g; the “radiotracer uptake, Lg. Int.” value was 1.06 ± 0.3 % ID/g. Also, at GR [1] (setting [7]), the “radiotracer uptake, Liver” value is recorded as 3.75 ± 0.8 % ID/g; the “radiotracer uptake, Lung” value is 1.71 ± 0.2 % ID/g; the “radiotracer uptake, Muscle” value stood at 0.57 ± 0.1 % ID/g; the “radiotracer uptake, Pancreas” value is 1.76 ± 0.4 % ID/g. For the same compound, at GR [1] (setting [7]), the “radiotracer uptake, Sm. Int.” value was determined as 5.80 ± 2.5 % ID/g; the “radiotracer uptake, Spleen” value came to 0.76 ± 0.1 % ID/g; the “radiotracer uptake, Stomach” value is listed as 1.81 ± 0.3 % ID/g. For the same compound, on GR [1] (mice given vehicle), the “radiotracer uptake, Adrenal” value is listed as 6.17 ± 0.7 % ID/g; the “radiotracer uptake, Blood” value is 1.24 ± 0.1 % ID/g; the “radiotracer uptake, Bone” value was 0.70 ± 0.1 % ID/g; the “radiotracer uptake, Brain” value came out at 0.66 ± 0.1 % ID/g. Further, on GR [1] (mice given vehicle), the “radiotracer uptake, Brown Fat” value is recorded as 4.65 ± 1.1 % ID/g; the “radiotracer uptake, Heart” value was determined as 1.15 ± 0.2 % ID/g; the “radiotracer uptake, Kidney” value is listed as 1.38 ± 0.4 % ID/g; the “radiotracer uptake, Lg. Int.” value is 1.63 ± 0.4 % ID/g. At GR [1] (mice given vehicle), the “radiotracer uptake, Liver” value is recorded as 6.78 ± 1.1 % ID/g; the “radiotracer uptake, Lung” value came out at 2.07 ± 0.4 % ID/g; the “radiotracer uptake, Muscle” value came out at 0.74 ± 0.1 % ID/g; the “radiotracer uptake, Pancreas” value amounted to 2.70 ± 0.4 % ID/g. At GR [1] (mice given vehicle), the “radiotracer uptake, Sm. Int.” value is recorded as 10.88 ± 2.7 % ID/g; the “radiotracer uptake, Spleen” value stood at 1.55 ± 0.1 % ID/g; the “radiotracer uptake, Stomach” value was determined as 2.51 ± 0.4 % ID/g. In addition, on GR [1] (normal mice, 20 min post injection), the “brain uptake relative to (±)-^11C-YJH08” value is “approximately three fold lower”.
Turning to `COc1cccc2c1-c1ccc3c(c1[C@H](Cc1ccc(F)cc1)O2)C(C)=CC(C)(C)N3` [(S)-YJH08], the Ki on GR [2] (setting [8]) is less than 5 nM; at GR [2] (setting [9]), 2.03 nM.
Take `CC(C)NCC(O)COc1cccc2ccccc12` (centres unmarked) [Propranolol]: the “% Bound” value is on record as 64.56% in the data set with plasma protein [3] (human plasma, 2 μM, duplicate) and 78.25% in the data set with plasma protein [5] (mouse plasma, 2 μM, duplicate). Also, the recovery at 4 h, 2 μM in the data set on plasma protein [3] (plasma (rapid equilibrium dialysis device), pH 7.4, human plasma) turned out to be 104%; with plasma protein [5] (plasma (rapid equilibrium dialysis device), pH 7.4, mouse plasma), 106%. In addition, the fraction unbound at 4 h, 2 μM is 0.354 in data set [4] (setting [10]), 0.354 in data set [4] (setting [11]), 0.223 in data set [6] (setting [10]) and 0.22 in data set [6] (setting [11]).
On to `CC1=CC(C)(C)Nc2ccc3c(c21)c(=O)oc1cccc(O)c13` [YJH01, 2,5-dihydro-10-hydroxy-5-oxo-2,2,4-trimethyl-1H-[1]benzopyrano [3,4-f]quinoline], for which, at GR [2] (setting [9]), the Ki was 2.35 nM.
Take `COc1cccc2c1-c1ccc3c(c1[C@@H](Cc1ccc(F)cc1)O2)C(C)=CC(C)(C)N3` [(R)-YJH08]: the values for the Ki on GR [2] (setting [8]) and at GR [2] (setting [9]) were less than 5 nM and 3.76 nM, respectively.
Take `COc1cccc2c1-c1ccc3c(c1C(OC)O2)C(C)=CC(C)(C)N3` (centres unmarked) [YJH04, 5,10-Dimethoxy-2,5-dihydro-2,2,4-trimethyl-1H-[1]benzopyrano[3,4-f]quinolone]: the Ki on GR [2] (setting [9]) turned out to be 6.22 nM.
The same measure, in the same setting: then `COc1cccc2c1-c1ccc3c(c1C(O)O2)C(C)=CC(C)(C)N3` (centres unmarked) [YJH03], with 6.51 nM.
Same read-out and setting: then `COc1cccc2oc(=O)c3c4c(ccc3c12)NC(C)(C)C=C4C` [YJH02, 2,5-Dihydro-10-methoxy-5-oxo-2,2,4-trimethyl-1H-[1]benzopyrano [3,4-f]quinoline], with 2.67 nM.
